Target: T1, TLR8 (Homo sapiens, UniProt Q9NR97)
T1 sequence (Q9NR97 27-1041): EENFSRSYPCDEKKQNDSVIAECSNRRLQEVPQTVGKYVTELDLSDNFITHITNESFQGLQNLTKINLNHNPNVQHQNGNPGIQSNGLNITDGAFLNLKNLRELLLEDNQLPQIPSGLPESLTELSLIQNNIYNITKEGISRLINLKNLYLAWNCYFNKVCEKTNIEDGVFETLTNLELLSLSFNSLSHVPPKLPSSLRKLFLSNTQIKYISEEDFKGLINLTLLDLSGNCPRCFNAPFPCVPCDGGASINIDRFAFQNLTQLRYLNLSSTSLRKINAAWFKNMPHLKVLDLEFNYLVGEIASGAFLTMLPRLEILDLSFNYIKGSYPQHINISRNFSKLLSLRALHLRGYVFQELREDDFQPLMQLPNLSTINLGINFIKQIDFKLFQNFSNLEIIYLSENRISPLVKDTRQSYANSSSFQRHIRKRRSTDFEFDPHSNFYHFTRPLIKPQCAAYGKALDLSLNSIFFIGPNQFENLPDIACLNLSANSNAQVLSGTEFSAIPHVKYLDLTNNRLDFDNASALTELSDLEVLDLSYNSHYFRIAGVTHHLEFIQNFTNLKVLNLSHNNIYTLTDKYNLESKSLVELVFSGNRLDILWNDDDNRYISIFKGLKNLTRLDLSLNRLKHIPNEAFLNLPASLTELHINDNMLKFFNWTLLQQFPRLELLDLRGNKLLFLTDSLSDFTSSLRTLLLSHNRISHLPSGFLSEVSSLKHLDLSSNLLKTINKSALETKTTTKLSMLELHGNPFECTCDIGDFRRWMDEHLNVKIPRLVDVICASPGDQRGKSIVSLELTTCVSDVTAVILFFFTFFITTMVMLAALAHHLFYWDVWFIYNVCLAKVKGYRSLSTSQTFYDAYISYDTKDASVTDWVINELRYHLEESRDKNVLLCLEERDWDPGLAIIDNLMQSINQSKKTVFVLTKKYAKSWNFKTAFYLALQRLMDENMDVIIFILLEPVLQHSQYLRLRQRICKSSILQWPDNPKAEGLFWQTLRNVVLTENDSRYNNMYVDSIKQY
Experiment: HEK-TLR8 NF-κB-luciferase reporter, R848 or Motolimod stimulation (potentiation or inhibition)
Assay type: cell-based
Design: expressed in transfected cells; host or cells: 293XLhTLR8 (HEK293)
Details: MOE-modified ASO at 100 nM; averaged NF-κB-Luciferase relative to R848 condition (fold increase)

| Sequence | TLR8 100 nM |
| --- | --- |
| AACACTTCGTGGGGTCCTTT (antisense; 2'-MOE modified, pattern not given here) [HPRT-664 MOE] | 2.725 |
| AATCCGCCCAAAGGGAACTG (antisense; 2'-MOE modified, pattern not given here) [HPRT-1027 MOE] | 2.685 |
| ACAACCCCTTTCACCATCCC (antisense; 2'-MOE modified, pattern not given here) [MB21D1-689 MOE] | 8.841 |
| ACAGTGTTGAGATACTCGGG (antisense; 2'-MOE modified, pattern not given here) [EGFR-3652 MOE] | 5.681 |
| ACCCACTTGGCAGACCATCA (antisense; 2'-MOE modified, pattern not given here) [CTNN2B-1575 MOE] | 2.822 |
| ACTGACTGTCTTGAGGGTTC (antisense; 2'-MOE modified, pattern not given here) [MB21D1-1483 MOE] | 2.454 |
| AGATCTGGCAGCCCATCAAC (antisense; 2'-MOE modified, pattern not given here) [CTNN2B-2516 MOE] | 3.069 |
| AGGTCTTGGCTTCGTGGAGC (antisense; 2'-MOE modified, pattern not given here) [MB21D1-522 MOE] | 3.657 |
| ATCCAACACTTCGTGGGGTC (antisense; 2'-MOE modified, pattern not given here) [HPRT-668 MOE] | 1.437 |
| ATGTCCCCTGTTGACTGGTC (antisense; 2'-MOE modified, pattern not given here) [HPRT-489 MOE] | 1.752 |
| ATGTCCCGCCACTGGATGCT (antisense; 2'-MOE modified, pattern not given here) [EGFR-727 MOE] | 2.029 |
| ATGTGATGGCCTCCCATCTC (antisense; 2'-MOE modified, pattern not given here) [HPRT-333 MOE] | 0.939 |
| CAACACTTCGTGGGGTCCTT (antisense; 2'-MOE modified, pattern not given here) [HPRT-665 MOE] | 1.320 |
| CAAGGCCCTTCGCACTTCTT (antisense; 2'-MOE modified, pattern not given here) [EGFR-1225 MOE] | 1.115 |
| CAATGTGATGGCCTCCCATC (antisense; 2'-MOE modified, pattern not given here) [HPRT-335 MOE] | 1.518 |
| CACCCACTTGGCAGACCATC (antisense; 2'-MOE modified, pattern not given here) [CTNN2B-1576 MOE] | 1.440 |
| CAGATAGCACCTTCAGCACT (antisense; 2'-MOE modified, pattern not given here) [CTNN2B-1294 MOE] | 1.773 |
| CCAACACTTCGTGGGGTCCT (antisense; 2'-MOE modified, pattern not given here) [HPRT-666 MOE] | 1.223 |
| CGTGTCTGGAAGCTTCCTTT (antisense; 2'-MOE modified, pattern not given here) [CTNN2B-808 MOE] | 1.476 |
| CTCTTGAAGCATCGTATCAC (antisense; 2'-MOE modified, pattern not given here) [CTNN2B-3648 MOE] | 1.650 |
| CTGTGATCTTGACATGCTGC (antisense; 2'-MOE modified, pattern not given here) [EGFR-2790 MOE] | 1.308 |

Same assay, conditions: MOE-modified ASO at 500 nM; averaged NF-κB-Luciferase relative to R848 condition (fold increase)

| Sequence | TLR8 500 nM |
| --- | --- |
| AACACTTCGTGGGGTCCTTT (antisense; 2'-MOE modified, pattern not given here) [HPRT-664 MOE] | 3.167 |
| AATCCGCCCAAAGGGAACTG (antisense; 2'-MOE modified, pattern not given here) [HPRT-1027 MOE] | 4.659 |
| ACAACCCCTTTCACCATCCC (antisense; 2'-MOE modified, pattern not given here) [MB21D1-689 MOE] | 14.808 |
| ACAGTGTTGAGATACTCGGG (antisense; 2'-MOE modified, pattern not given here) [EGFR-3652 MOE] | 8.261 |
| ACCCACTTGGCAGACCATCA (antisense; 2'-MOE modified, pattern not given here) [CTNN2B-1575 MOE] | 3.985 |
| ACTGACTGTCTTGAGGGTTC (antisense; 2'-MOE modified, pattern not given here) [MB21D1-1483 MOE] | 3.185 |
| AGATCTGGCAGCCCATCAAC (antisense; 2'-MOE modified, pattern not given here) [CTNN2B-2516 MOE] | 4.465 |
| AGGTCTTGGCTTCGTGGAGC (antisense; 2'-MOE modified, pattern not given here) [MB21D1-522 MOE] | 5.064 |
| ATCCAACACTTCGTGGGGTC (antisense; 2'-MOE modified, pattern not given here) [HPRT-668 MOE] | 1.519 |
| ATGTCCCCTGTTGACTGGTC (antisense; 2'-MOE modified, pattern not given here) [HPRT-489 MOE] | 2.118 |
| ATGTCCCGCCACTGGATGCT (antisense; 2'-MOE modified, pattern not given here) [EGFR-727 MOE] | 1.708 |
| ATGTGATGGCCTCCCATCTC (antisense; 2'-MOE modified, pattern not given here) [HPRT-333 MOE] | 1.429 |
| CAACACTTCGTGGGGTCCTT (antisense; 2'-MOE modified, pattern not given here) [HPRT-665 MOE] | 1.639 |
| CAAGGCCCTTCGCACTTCTT (antisense; 2'-MOE modified, pattern not given here) [EGFR-1225 MOE] | 1.236 |
| CAATGTGATGGCCTCCCATC (antisense; 2'-MOE modified, pattern not given here) [HPRT-335 MOE] | 1.677 |
| CACCCACTTGGCAGACCATC (antisense; 2'-MOE modified, pattern not given here) [CTNN2B-1576 MOE] | 1.502 |
| CAGATAGCACCTTCAGCACT (antisense; 2'-MOE modified, pattern not given here) [CTNN2B-1294 MOE] | 2.356 |
| CCAACACTTCGTGGGGTCCT (antisense; 2'-MOE modified, pattern not given here) [HPRT-666 MOE] | 1.185 |
| CGTGTCTGGAAGCTTCCTTT (antisense; 2'-MOE modified, pattern not given here) [CTNN2B-808 MOE] | 1.222 |
| CTCTTGAAGCATCGTATCAC (antisense; 2'-MOE modified, pattern not given here) [CTNN2B-3648 MOE] | 2.200 |
| CTGTGATCTTGACATGCTGC (antisense; 2'-MOE modified, pattern not given here) [EGFR-2790 MOE] | 1.387 |
